Data: patent publication US11192932B2, “Heparin-binding domain of IGFBP-2 in the treatment of metabolic disorders” (Amolyt Pharma, priority 2018, dated 2021)
Entries after “also recorded” stand apart in the source; their conditions may differ.

Tests used:
3T3-LI adipocytes = experiment: [3H]-2-deoxyglucose uptake by fully differentiated 3T3-LI adipocytes; assay type: cell-based, mouse; details: 3 μg/ml for 24 hours
Description: The cells were exposed to the test compounds at a concentration of 3 μg/ml for 24 hours before testing for [^3H]-2-deoxyglucose uptake.
3T3-LI cells are a mouse fibroblast cell line which when cultured under specific conditions, differentiate into adipocytes.
Differentiation of 3T3-LI cells into adipocytes was achieved using the following protocol. 3T3-L1 cells were seeded in 24-well plates and cultured in 3T3-L1 maintenance medium (DMEM containing 10% fetal bovine serum, 4 mM L-glutamine 1 mM, sodium pyruvate) until the cells were 100% confluent. The cells were then fed with 3T3-L1 maintenance medium and cultured for a further 48 h. To initiate differentiation into adipocytes, the medium was changed to Differentiation medium 1 (DMEM containing 10% fetal bovine serum, 4 mM L-glutamine, 1 mM sodium pyruvate, 0.5 mM IBMX, […]), and cultured for a further 2 days. The medium was then changed to Differentiation medium 2 (DMEM containing 10% fetal bovine serum, 4 mM L-glutamine, 1 mM sodium pyruvate, 1 mg/ml insulin), and cultured for a further 2 days. The medium was then changed to Adipocyte Maintenance medium (DMEM containing 10% fetal bovine serum, 4 mM L-glutamine, 1 mM sodium pyruvate), and cultured for a further 7 days. During this time, the medium was changed every other day. The now fully differentiated adipocytes were utilized for glucose uptake experiments (day 11 from initiation of differentiation). Stock solutions of the HBD1 peptides to be tested were prepared by dilution with 0.9% NaCl solution under sterile conditions in a laminar flow cabinet to a concentration of 1 mg/ml, based on net peptide content. The solutions were homogenized by gentle inversion. Test items were prepared from the stock solutions, and remaining stock solution was aliquoted and stored at −20° C. and used without repeated freeze-thaw cycles.
Glucose uptake experiments were carried our using the following protocol. Prior to beginning the experiment, 100 ml of Krebs Ringer bicarbonate buffer (KRBB)(25 mM Hepes pH 7.4, 118 mM NaCl, 5 mM NaHCO3, 4.7 mM KCl, 1.2 mM KH2PO4, 1.2 mM MgSO4, 2.5 mM CaCl2, 0.2% BSA—Filtered using a 0.2 μm filter) and 100 ml of Incubation medium (DMEM containing 4 mM L-glutamine, 1 mM sodium pyruvate, 1% penicillin streptomycin, 0.2% BSA—Filtered using a 0.2 μm filter) were pre-warmed to 37° C., and 500 ml of KRBB was chilled on ice. Stock solutions of test compounds were diluted to 3 μg/ml final concentrations in pre-warmed Incubation medium and in pre-warmed KRBB. Insulin (positive control), previously diluted 1:1000 in sterile 0.9% NaCl, was further diluted in 10 ml of both medium and buffer to a final concentration of 1 nM. All traces of the medium were carefully removed from the cells using a fine tip. […]

AMPK = AMPK phosphorylation (immunoblot anti-pAMPK T172) in C2C12 myotubes; assay type: cell-based, mouse; details: C2C12 myotubes treated with SEQ ID NO: 73 (FIG. 7)
Description: In particular: HBD1 SEQ ID NO: 73 (C18:0-HLGLEEPKK). The AMPK pathway is both insulin and IGF1 independent, but acts ultimately to induce GLUT4 translocation to the cell membrane to facilitate the uptake and metabolism of glucose.
For signaling studies the cells were prepared the same way except 6-well plates were used. After 6 days incubation in differentiating medium, the cells were washed with serum-free medium. The various treatments were then added in serum free medium containing 0.1% BSA. HBD1 peptides were added and incubated for 8 hours. When utilizing IGF-I, incubation was for 15 minutes after IGF-1 addition. Following incubation the cells were lysed in RIPA buffer and sonicated. The cell lysate was centrifuged and the supernatant analyzed for either Akt or AMPK by SDS PAGE using a 10% gel followed by immunoblotting with the appropriate antibody.
To examine further the intracellular transduction pathways utilized by the HBD1 peptides, following treatment with HBD1 peptide SEQ ID NO: 73 (C18:0-HLGLEEPKK), cell lysate proteins, were separated by SDS PAGE and immunoblotted with anti-pAMPK T172.

[1] = system: C2C12 mouse skeletal muscle myotubes; experiment: 3H-2-deoxyglucose uptake by fully differentiated C2C12 myotubes; assay type: cell-based; details: C2C12 myotubes, SEQ ID NO: 73 alone or together with insulin (FIG. 8)
Description: In particular: HBD1 SEQ ID NO: 73 (C18:0-HLGLEEPKK) at 0.8 μM, 1.5 μM, and 2.3 μM; or 1.5 μM SEQ ID NO: 73 (C18:0-HLGLEEPKK) for 2, 4, and 16 hours prior to testing glucose uptake.
The studies were performed using cultured, fully differentiated C2C12 mouse skeletal muscle myotubes. The cells were prepared by growing C2C12 cells to confluent density in DMEM with 25 mM glucose and 10% fetal bovine serum in 24 well plates. At this time, the medium was changed to differentiation medium (DMEM with 25 mM glucose and 2% horse serum) for 6 days with medium changed every third day. The various treatments were diluted in serum-free medium and, after washing the cells with serum-free medium, were added to the cells and incubated for 2 hours or alternative times, depending on the treatment. At the end of incubation period, the media was removed and 1.0 ml of glucose-free Krebs ringer bicarbonate buffer (pH 7.4), containing the same treatments, was added and incubation continued for 10 minutes. At the end of the 10 min incubation period, ^3H-2-deoxyglucose ([…]) (specific activity=8 Ci/mmole) was added directly to all wells, and the incubation continued for an additional […]. The wells were then rinsed three times with ice cold phosphate buffered saline, the cells were extracted with 0.5 N NaOH, and the ^3H-2-deoxyglucose content of the cell lysate quantitated by scintillation counting.

mice = details: publication Xi, 2013; cited from earlier work

| Molecule | glucose uptake by 3T3-LI adipocytes (3T3-LI adipocytes) | effect of blocker on SEQ ID NO: 73-induced AMPK phosphorylation (AMPK) | effect of blocker on SEQ ID NO: 73-stimulated glucose uptake [1] | body weight and fat accumulation (mice) | glucose tolerance (mice) |
| --- | --- | --- | --- | --- | --- |
| HHLGLEEPKK [SEQ ID NO: 16] | stimulated increased glucose uptake |  |  |  |  |
| c1cc(-c2cnn3cc(-c4ccc(OCCN5CCCCC5)cc4)cnc23)ccn1 [Compound C, reference compound] |  | completely abolished; also recorded: prevented | completely abolished; also recorded: prevented |  |  |
| HLGLEEPKK [SEQ ID NO: 10] | stimulated increased glucose uptake |  |  |  |  |
| KHHLGLEEPKKLR [SEQ ID NO: 1] | stimulated increased glucose uptake |  |  | decrease body weight and fat accumulation | no effect |
